# Test results published in patent publication US20190269596A1, “COSMETIC USE AND METHOD FOR IMPROVING PHYSIOLOGICAL FUNCTIONS OF THE SKIN BY INCREASING THE EXPRESSION OF UBIAD1” (ISP Investments LLC, priority 2016, published 2019).
# Where no end group is shown, it is not given here.
# Legend:
# Format in all cases: cell-based, human
# [1] = system: keratinocytes; test: Transmission electron microscopy of peptide-treated keratinocytes; conditions: cultured keratinocytes, peptide 1 tLM, 48 hours
# Experimental: (§1) Normal human epithelial keratinocytes were isolated from skin obtained from plastic surgery of healthy females who had given written informed consent. Keratinocytes were cultured in keratinocyte serum free medium, with provided human recombinant epidermal growth factor and bovine pituitary extract (Gibco, Auckland, NZ), and 0.1 mg/ml Primocin™ (Invivogen, San Diego, Calif., USA).
# Cultured keratinocytes, treated with the peptide at 1 tLM concentration for 48 hours were fixed in Karnovsky's solution (Emsdiasum, Hatfield, Pa., USA) for 1 h at room temperature, and left for 12 h at 4° C. Cells were then carefully scrapped off the petridish, pelleted with a brief centrifugation, and washed with 0.1 M sodium cacodylate buffer. Pellets were routinely osmicated, dehydrated in a graded series of ethanol, and infiltrated with; and embedded in, a low viscocity epon-epoxy resin. Ultrathin sections of silver-gray interference color were cut and double-stained with uranyl acetate and lead citrate and then examined in a Zeiss 10 transmission electron microscope. Microphotographs were taken with a Gatan digital camera (Gatan, Pleasanton, Calif., USA).
# [2] = system: keratinocytes; test: Cellular ROS measurement with CellROX green in keratinocytes exposed to cumene hydroperoxide; conditions: keratinocytes exposed 1 hour to 200 μM cumene hydroperoxide, peptide-treated
# Experimental: (A) Cellular ROS measurement in keratinocyte exposed 1 hour to 200 μM cumene hydroperoxide using the CellIROX green assay (×20 objective lens, scale bar=31 μm).
# (B) CellROX quantification graph with One-Way Analysis of Variance, displaying confidence interval means diamonds (green). The line across each diamond represents the group mean. The vertical span of each diamond represents the 95% confidence interval for each group. Grand sample mean is represented by a horizontal black line.
# (§2) Primary antibodies used were anti-Ubiad1 (sc-377013, Santa Cruz Biotechnology, Heidelberg, Gennany), anti-Giantin (ab24586, Abcamn, Cambridge, UK), anti-3-Nitrotyrosine (ab61392, Abcam). Alexa Fluor® coupled secondary antibodies were used (Molecular Probes, Eugene, Oreg., USA). Alexa Fluor® 594 Phalloidin probe were used for F-actin detection (A12381, molecular Probes). CellROX Green probe was used for monitoring intracellular ROS (C10444, molecular Probes). C11-BODIPY (581/591) was used for monitoring lipid peroxidation (C10445, Molecular Probes). […]
# (§3) All experiments have been repeated, the quantification of the fluorescence was performed by measuring the fluorescent intensity of the staining, which was normalized by cell area. Lipid peroxidation in cells was quantified according to manufacturer guideline with the ratios of the signal from the 590 to 510 channels. […]
# [3] = system: Ubiad1; test: Immunoblotting of Ubiad1 in keratinocytes; conditions: skin keratinocytes, 1 μM (1%) Ubiad1 inducer peptide
# Experimental: as §1
# Keratinocytes were lysed in RIPA buffer (Thermo Scientific, Rockford, Ill., USA), containing protease inhibitor cocktail and EDTA (Thermo Scientific). The protein concentration was determined using the BCA Protein Assay Kit (Thermo Scientific) and equal amounts of total protein were loaded on a 4 to 12% NuPAGE Bis-Tris Gel (Invitrogen) and transferred onto a nitrocellulose membranes using the iBlot dry blotting system (Invitrogen). Non specific binding sites were blocked, and membranes were then labeled with appropriate antibodies and developed using the SuperSignal West Femto Maximum Sensitivity Substrate kit (Thermo Scientific).
# [4] = system: Ubiad1; test: qPCR of Ubiad1 mRNA expression in keratinocytes; conditions: skin keratinocytes, 1 μM (1%) Ubiad1 inducer peptide
# Experimental: as §1
# Total RNA was extracted using mirVana miRNA isolation kit according to the manufacturer's instructions (Ambion, Austin, Tex., USA). Total RNA was reverse transcribed with the high capacity cDNA reverse transcription kit (Applied Biosystems, Branchburg, N.J., USA). Real-time polymerase chain reaction was performed according to the Taqman method, using the TaqMan Universal PCR Master Mix (Applied Biosystems) with the StepOnePlus Real-time PCR System (Applied Biosystems). Relative expression levels of each target gene were calculated according to the delta-delta-CT method.
# [5] = system: keratinocytes; test: Lipid peroxidation (C11-BODIPY) in keratinocytes exposed to cumene hydroperoxide; conditions: keratinocytes exposed 1 hour to 200 μM cumene hydroperoxide, peptide-treated
# Experimental: (C) Lipid peroxidation in keratinocyte exposed 1 hour to 200 μM cumene hydroperoxide (reduced BODIPY in red; oxidized BODIPY in green) (×20 objective lens, scale bar=31 μm).
# (D) Lipid peroxidation quantification graph with One-Way Analysis of Variance, displaying confidence interval means diamonds (green). The line across each diamond represents the group mean. The vertical span of each diamond represents the 95% confidence interval for each group. Grand sample mean is represented by a horizontal black line.
# as §2, §3
substance,measurement,setting,value
"Ala-Val-Leu-Ala-Gly-NH2 (AVLAG-NH2) [Ubiad1 inducer peptide, artificially synthesized Ubiad1 inducer peptide]",cell morphology: mitochondrial and Golgi content of the cells,[1],large scale increase in the mitochondrial and Golgi content of the cells
same,resistance to ROS accumulation,[2],more resistant to ROS accumulation
same,increase of expression of Ubiad1 measured by immunoblotting,[3],+53%
same,increase of expression of Ubiad1 measured by qPCR,[4],+102%
same,resistance to lipid peroxidation,[5],more resistant
